Data from patent US20140142094A1, “KINASE INHIBITORS” (ICAHN SCHOOL OF MEDICINE AT MOUNT SINAI, priority 2011, published 2014).

What was measured:
DU145 (prostate cancer) = experiment: Cytotoxicity on DU145 cancer cell line; format: cell-based; conditions: Homo sapiens, DU-145; DU145 cells, 96 h treatment
Method: (§1) The effect of the compounds described herein on tumor cells was determined by the assay described by Latham et al., Oncogene 12:827-837 (1996). Tumor cells K562 (chronic myelogenous leukemia; leukemia cell line +ve for Bcr-Abl) or DU145 (prostate cancer) were plated in 12-well dishes at a cell density of 2.5×10^4 cells per well. The plated cells were treated 24h. later with a DMSO solution of a compound as described herein at multiple concentrations ranging from 0.01 μM to 100 μM. The plates were examined 96 h. later under an inverted microscope, Olympus CK-2 using a 10× objective, and compound activity was noted by physical observation. When necessary, the total number of viable cells was determined by trypsinizing the wells and counting the number of viable cells, as determined by trypan blue exclusion, using a hemacytometer.

ABL1 (G250E) = target: T1, ABL1 (G250E) (Homo sapiens, UniProt P00519, G250E); experiment: Inhibition of ABL mutants; format: biochemical; conditions: 10 μM ATP; 5-dose IC50 mode
T1 construct: purchased Reaction Biology Corporation
Method: (§2) Kinase assays were performed at Reaction Biology Corporation. To a freshly prepared buffer solution was added the target kinase at a concentration of 20 μM. The contents were mixed gently, and then compound 1b dissolved in DMSO was added to the reaction mixture in the appropriate concentration. The mixture was incubated at room temperature for 30 min. prior to addition of ATP to initiate the reaction. Compound 1b was tested in a 5-dose IC50 mode with 10-fold serial dilutions starting at 10 μM. Staurosporine was used as a control compound in a 10-dose IC50 mode with 3-fold serial dilutions starting at 20 μM. Reaction was carried out at 10 μM ATP concentration.

ABL1 (Q252H) = target: T2, ABL1 (Q252H) (Homo sapiens, UniProt P00519, Q252H); experiment: Inhibition of ABL mutants; format: biochemical; conditions: 10 μM ATP; 5-dose IC50 mode
T2 construct: purchased Reaction Biology Corporation
Method: as §2

ABL1 (Y253F) = target: T3, ABL1 (Y253F) (Homo sapiens, UniProt P00519, Y253F); experiment: Inhibition of ABL mutants; format: biochemical; conditions: 10 μM ATP; 5-dose IC50 mode
T3 construct: purchased Reaction Biology Corporation
Method: as §2

ABL1 (E255K) = target: T4, ABL1 (E255K) (Homo sapiens, UniProt P00519, E255K); experiment: Inhibition of ABL mutants; format: biochemical; conditions: 10 μM ATP; 5-dose IC50 mode
T4 construct: purchased Reaction Biology Corporation
Method: as §2

ABL1 (H396P) = target: T5, ABL1 (H396P) (Homo sapiens, UniProt P00519, H396P); experiment: Inhibition of ABL mutants; format: biochemical; conditions: 10 μM ATP; 5-dose IC50 mode
T5 construct: purchased Reaction Biology Corporation
Method: as §2

ABL1 (M351T) = target: T6, ABL1 (M351T) (Homo sapiens, UniProt P00519, M351T); experiment: Inhibition of ABL mutants; format: biochemical; conditions: 10 μM ATP; 5-dose IC50 mode
T6 construct: purchased Reaction Biology Corporation
Method: as §2

ABL1 (T315I) = target: T7, ABL1 (T315I) (Homo sapiens, UniProt P00519, T315I); experiment: Inhibition of ABL mutants; format: biochemical; conditions: 10 μM ATP; 5-dose IC50 mode
T7 construct: purchased Reaction Biology Corporation
Method: as §2

[1] = system: K562 (chronic myelogenous leukemia; leukemia cell line +ve for Bcr-Abl); experiment: Cytotoxicity on K562 cancer cell line; format: cell-based; conditions: Homo sapiens; K562 cells, 96 h treatment
Method: as §1

PIK3-β = target: T8, PIK3-β (Homo sapiens, UniProt P42338); experiment: Inhibition of PI3K kinases; format: biochemical; conditions: Table 4; 10 μM ATP; 5-dose IC50 mode
T8 construct: purchased Reaction Biology Corporation
Method: as §2, with “were mixed gently and then” for “were mixed gently, and then”, “at 20 µM. Reaction was” for “at 20 μM. Reaction was”

PIK3-δ = target: T9, PIK3-δ (Homo sapiens, UniProt O00329); experiment: Inhibition of PI3K kinases; format: biochemical; conditions: Table 4; 10 μM ATP; 5-dose IC50 mode
T9 construct: purchased Reaction Biology Corporation
Method: as §2, with “were mixed gently and then” for “were mixed gently, and then”, “at 20 µM. Reaction was” for “at 20 μM. Reaction was”

PIK3-α = target: T10, PIK3-α (Homo sapiens, UniProt P42336); experiment: Inhibition of PI3K kinases; format: biochemical; conditions: Table 4; 10 μM ATP; 5-dose IC50 mode
T10 construct: purchased Reaction Biology Corporation
Method: as §2, with “were mixed gently and then” for “were mixed gently, and then”, “at 20 µM. Reaction was” for “at 20 μM. Reaction was”

PIK3-γ = target: T11, PIK3-γ (Homo sapiens, UniProt P48736); experiment: Inhibition of PI3K kinases; format: biochemical; conditions: Table 4; 10 μM ATP; 5-dose IC50 mode
T11 construct: purchased Reaction Biology Corporation
Method: as §2, with “were mixed gently and then” for “were mixed gently, and then”, “at 20 µM. Reaction was” for “at 20 μM. Reaction was”

PI3K-δ = target: T12, PI3K-δ (Homo sapiens, UniProt O00329); experiment: Kinase inhibition assay (Reaction Biology); format: biochemical; conditions: Table 2; 10 μM ATP; 5-dose IC50 mode
T12 construct: purchased Reaction Biology Corporation
Method: as §2

FGR = target: T13, FGR (Homo sapiens, UniProt P09769); experiment: Kinase inhibition assay (Reaction Biology); format: biochemical; conditions: 10 μM ATP; 5-dose IC50 mode
T13 construct: purchased Reaction Biology Corporation
Method: as §2

RPIK2 = target: T14, RPIK2 (Homo sapiens, UniProt O43353); experiment: Kinase inhibition assay (Reaction Biology); format: biochemical; conditions: 10 μM ATP; 5-dose IC50 mode
T14 construct: purchased Reaction Biology Corporation
Method: as §2

ABL1 = target: T15, ABL1 (Homo sapiens, UniProt P00519); experiment: Kinase inhibition assay (Reaction Biology); format: biochemical; conditions: 10 μM ATP; 5-dose IC50 mode
T15 construct: purchased Reaction Biology Corporation
Method: as §2

ABL2/ARG = target: T16, ABL2/ARG (Homo sapiens, UniProt P42684); experiment: Kinase inhibition assay (Reaction Biology); format: biochemical; conditions: 10 μM ATP; 5-dose IC50 mode
T16 construct: purchased Reaction Biology Corporation
Method: as §2

PI3K-α = target: T17, PI3K-α (Homo sapiens, UniProt P42336); experiment: Kinase inhibition assay (Reaction Biology); format: biochemical; conditions: Table 2; 10 μM ATP; 5-dose IC50 mode
T17 construct: purchased Reaction Biology Corporation
Method: as §2

T11 sequence (P48736 whole entry): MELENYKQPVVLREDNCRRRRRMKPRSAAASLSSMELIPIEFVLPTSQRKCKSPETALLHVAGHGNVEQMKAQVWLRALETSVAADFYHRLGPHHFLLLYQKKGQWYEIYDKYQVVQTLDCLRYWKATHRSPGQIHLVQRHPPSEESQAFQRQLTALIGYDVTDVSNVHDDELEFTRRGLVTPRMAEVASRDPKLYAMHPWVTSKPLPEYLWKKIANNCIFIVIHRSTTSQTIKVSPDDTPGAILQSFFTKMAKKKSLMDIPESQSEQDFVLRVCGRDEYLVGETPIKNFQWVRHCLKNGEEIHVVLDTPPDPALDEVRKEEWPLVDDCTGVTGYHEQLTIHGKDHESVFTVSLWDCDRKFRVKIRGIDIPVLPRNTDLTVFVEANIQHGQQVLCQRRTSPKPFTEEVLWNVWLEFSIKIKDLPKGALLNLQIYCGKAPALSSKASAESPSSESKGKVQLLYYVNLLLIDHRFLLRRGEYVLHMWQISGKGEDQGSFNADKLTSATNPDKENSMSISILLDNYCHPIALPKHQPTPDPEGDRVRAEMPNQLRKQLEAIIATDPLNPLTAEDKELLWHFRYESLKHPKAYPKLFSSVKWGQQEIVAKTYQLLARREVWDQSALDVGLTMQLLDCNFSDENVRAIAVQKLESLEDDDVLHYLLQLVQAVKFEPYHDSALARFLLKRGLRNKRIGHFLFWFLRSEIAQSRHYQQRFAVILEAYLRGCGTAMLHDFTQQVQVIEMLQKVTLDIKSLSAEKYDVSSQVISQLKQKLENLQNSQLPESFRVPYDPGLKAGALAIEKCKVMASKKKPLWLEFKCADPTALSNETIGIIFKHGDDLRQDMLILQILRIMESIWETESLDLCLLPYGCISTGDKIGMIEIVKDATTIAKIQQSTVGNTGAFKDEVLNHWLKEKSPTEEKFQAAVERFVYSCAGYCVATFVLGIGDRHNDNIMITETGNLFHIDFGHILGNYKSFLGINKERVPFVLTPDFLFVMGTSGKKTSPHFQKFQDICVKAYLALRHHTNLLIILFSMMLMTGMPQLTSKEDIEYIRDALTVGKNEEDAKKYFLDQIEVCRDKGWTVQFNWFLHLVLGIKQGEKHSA
T8 sequence (P42338 whole entry): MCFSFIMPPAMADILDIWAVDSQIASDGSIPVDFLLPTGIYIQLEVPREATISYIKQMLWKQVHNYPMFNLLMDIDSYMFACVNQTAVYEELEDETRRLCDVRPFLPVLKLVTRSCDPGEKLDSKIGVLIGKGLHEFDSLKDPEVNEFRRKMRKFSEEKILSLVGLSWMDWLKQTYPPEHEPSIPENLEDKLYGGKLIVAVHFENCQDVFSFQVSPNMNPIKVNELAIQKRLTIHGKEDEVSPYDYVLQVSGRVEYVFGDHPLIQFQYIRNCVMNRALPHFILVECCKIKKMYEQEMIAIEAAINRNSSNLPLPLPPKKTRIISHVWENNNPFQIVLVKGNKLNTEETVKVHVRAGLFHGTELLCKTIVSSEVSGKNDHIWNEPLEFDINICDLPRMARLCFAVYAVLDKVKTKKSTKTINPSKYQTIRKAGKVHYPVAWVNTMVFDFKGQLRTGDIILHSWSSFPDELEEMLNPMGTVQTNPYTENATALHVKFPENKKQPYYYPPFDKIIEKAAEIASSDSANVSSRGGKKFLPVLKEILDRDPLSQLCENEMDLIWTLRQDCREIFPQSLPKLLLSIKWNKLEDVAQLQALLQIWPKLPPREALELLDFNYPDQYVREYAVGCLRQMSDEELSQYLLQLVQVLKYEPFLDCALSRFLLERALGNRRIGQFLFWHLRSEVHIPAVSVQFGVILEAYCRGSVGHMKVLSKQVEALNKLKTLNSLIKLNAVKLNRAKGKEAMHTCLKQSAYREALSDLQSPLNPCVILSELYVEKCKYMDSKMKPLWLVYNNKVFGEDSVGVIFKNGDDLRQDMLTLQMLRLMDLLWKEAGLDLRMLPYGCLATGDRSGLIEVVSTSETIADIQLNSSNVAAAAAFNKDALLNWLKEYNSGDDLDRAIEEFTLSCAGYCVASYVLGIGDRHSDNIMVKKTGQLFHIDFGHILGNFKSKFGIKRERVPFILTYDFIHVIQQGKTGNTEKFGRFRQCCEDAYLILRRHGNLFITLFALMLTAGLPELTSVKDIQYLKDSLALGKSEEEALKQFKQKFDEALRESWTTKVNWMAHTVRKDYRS
T8 sequence (P27986 whole entry partner): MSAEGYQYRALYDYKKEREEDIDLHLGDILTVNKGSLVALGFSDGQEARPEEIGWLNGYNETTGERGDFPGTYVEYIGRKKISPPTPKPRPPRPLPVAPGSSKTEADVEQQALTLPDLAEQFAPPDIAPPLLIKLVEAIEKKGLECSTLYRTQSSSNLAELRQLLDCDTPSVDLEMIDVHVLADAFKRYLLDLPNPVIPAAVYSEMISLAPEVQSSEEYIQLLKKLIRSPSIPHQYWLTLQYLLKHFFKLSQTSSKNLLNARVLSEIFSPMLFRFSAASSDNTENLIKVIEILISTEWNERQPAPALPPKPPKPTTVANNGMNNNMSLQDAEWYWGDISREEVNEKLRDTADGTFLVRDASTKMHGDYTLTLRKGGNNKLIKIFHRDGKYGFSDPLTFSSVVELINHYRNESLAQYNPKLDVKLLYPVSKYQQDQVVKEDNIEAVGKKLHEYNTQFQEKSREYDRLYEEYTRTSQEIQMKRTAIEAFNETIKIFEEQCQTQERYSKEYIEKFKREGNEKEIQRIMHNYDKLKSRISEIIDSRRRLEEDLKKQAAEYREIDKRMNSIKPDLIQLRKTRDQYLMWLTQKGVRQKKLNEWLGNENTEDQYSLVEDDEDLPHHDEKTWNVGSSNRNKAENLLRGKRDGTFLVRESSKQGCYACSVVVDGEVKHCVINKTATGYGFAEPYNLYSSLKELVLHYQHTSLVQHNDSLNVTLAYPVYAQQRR
T16 sequence (P42684 whole entry): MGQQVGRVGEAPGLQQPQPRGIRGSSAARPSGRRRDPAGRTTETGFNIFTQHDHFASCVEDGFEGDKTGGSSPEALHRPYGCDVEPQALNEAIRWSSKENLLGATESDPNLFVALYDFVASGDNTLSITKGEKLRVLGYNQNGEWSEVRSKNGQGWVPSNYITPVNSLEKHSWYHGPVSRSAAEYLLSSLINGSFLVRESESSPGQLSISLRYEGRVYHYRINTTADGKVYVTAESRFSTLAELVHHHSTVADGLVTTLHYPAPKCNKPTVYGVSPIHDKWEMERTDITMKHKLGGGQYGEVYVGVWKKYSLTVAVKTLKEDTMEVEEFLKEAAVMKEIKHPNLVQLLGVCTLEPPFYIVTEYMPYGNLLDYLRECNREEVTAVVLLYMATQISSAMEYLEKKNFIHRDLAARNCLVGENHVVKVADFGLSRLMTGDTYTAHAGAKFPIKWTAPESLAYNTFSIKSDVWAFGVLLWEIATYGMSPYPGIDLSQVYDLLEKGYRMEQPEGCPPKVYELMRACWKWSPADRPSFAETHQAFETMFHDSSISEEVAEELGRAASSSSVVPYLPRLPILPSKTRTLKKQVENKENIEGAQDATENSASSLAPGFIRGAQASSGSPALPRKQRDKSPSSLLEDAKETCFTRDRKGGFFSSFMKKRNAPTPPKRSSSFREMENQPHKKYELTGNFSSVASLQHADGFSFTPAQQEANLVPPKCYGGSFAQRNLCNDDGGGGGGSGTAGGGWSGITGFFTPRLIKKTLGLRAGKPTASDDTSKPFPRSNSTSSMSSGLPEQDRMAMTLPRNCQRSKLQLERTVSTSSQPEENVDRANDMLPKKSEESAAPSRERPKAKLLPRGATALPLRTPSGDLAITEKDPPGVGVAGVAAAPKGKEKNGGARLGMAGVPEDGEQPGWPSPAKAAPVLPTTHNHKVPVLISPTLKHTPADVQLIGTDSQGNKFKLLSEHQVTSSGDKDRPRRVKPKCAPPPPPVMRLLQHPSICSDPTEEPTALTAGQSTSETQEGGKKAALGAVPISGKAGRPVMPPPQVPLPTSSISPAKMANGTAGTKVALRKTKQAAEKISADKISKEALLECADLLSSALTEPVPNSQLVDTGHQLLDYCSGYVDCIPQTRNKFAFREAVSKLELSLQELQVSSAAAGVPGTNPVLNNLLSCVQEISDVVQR
T13 sequence (P09769 whole entry): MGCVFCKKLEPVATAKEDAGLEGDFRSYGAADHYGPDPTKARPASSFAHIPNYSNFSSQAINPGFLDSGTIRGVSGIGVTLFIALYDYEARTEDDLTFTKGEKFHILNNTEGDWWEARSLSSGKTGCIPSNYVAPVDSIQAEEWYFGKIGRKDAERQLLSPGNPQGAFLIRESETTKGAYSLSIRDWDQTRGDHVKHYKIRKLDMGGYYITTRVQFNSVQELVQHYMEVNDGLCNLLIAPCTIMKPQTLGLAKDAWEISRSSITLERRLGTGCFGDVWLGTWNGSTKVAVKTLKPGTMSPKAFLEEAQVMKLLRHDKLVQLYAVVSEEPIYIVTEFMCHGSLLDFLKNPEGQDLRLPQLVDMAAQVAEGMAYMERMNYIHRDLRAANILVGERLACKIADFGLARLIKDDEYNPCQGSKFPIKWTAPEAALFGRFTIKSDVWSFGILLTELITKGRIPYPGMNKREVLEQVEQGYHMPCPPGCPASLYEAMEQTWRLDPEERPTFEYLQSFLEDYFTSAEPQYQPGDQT

| SMILES | melting point | IC50 (DU145 (prostate cancer)) | IC50 [1] | also measured |
| --- | --- | --- | --- | --- |
| CN1CCN(c2ccc(Nc3ncc4c(n3)S/C(=C/c3ccc([N+](=O)[O-])cc3)C(=O)N4)cc2)CC1 [Compound 1b, (E)-2-(4-(4-Methylpiperazin-1-yl)phenylamino)-7-(4-nitrobenzylidene)-5H-pyrimido[4,5-b][1,4]thiazin-6(7H)-one] | – | < 1000 nM | < 1000 nM | IC50 (ABL1 (G250E)): 35 nM; IC50 (ABL1 (Q252H)): 10 nM; IC50 (ABL1 (Y253F)): 60 nM; IC50 (ABL1 (E255K)): 106 nM; IC50 (ABL1 (H396P)): 9 nM; IC50 (ABL1 (M351T)): 12 nM; IC50 (ABL1 (T315I)): 2730 nM; IC50 (PIK3-β): 10 nM; IC50 (PIK3-δ): 7 nM; IC50 (PIK3-α): 4 nM; IC50 (PIK3-γ): 22 nM; IC50 (PI3K-δ): 20 nM; IC50 (FGR): 124 nM; IC50 (RPIK2): 68 nM; IC50 (ABL1): 19 nM; IC50 (ABL2/ARG): 30 nM; IC50 (PI3K-α): 13 nM |
| O=C1Nc2cnc(Nc3ccc(N4CCOCC4)cc3)nc2S/C1=C/c1ccc([N+](=O)[O-])cc1 [Compound 1k, (E)-2-((4-Morpholinophenyl)amino)-7-(4-nitrobenzylidene)-5H-pyrimido[4,5-b][1,4]thiazin-6(7H)-one] | 302 to 304 °C | 50000 to 100000 nM | 50000 to 100000 nM | – |
| CC(=O)N(c1ccc(N2CCN(C)CC2)cc1)c1ncc2c(n1)S/C(=C/c1ccc(C(=O)O)cc1)C(=O)N2 [Compound 1l, (E)-4-((2-(N-(4-(4-Methylpiperazin-1-yl)phenyl)acetamido)-6-oxo-5H-pyrimido[4,5-b][1,4]thiazin-7(6H)-ylidene)methyl)benzoic acid] | 326 to 330 °C | 50000 to 100000 nM | 50000 to 100000 nM | – |
| CN1CCN(c2ccc(Nc3ncc4c(n3)S/C(=C/c3ccc(OCc5ccccc5)cc3)C(=O)N4)cc2)CC1 [Compound 1o, (E)-7-(4-(Benzyloxy)benzylidene)-2-((4-(4-methylpiperazin-1-yl)pheny)amino)-5H-pyrimido[4,5-b][1,4]thiazin-6(7H)-one] | 238 to 240 °C | < 1000 nM | < 1000 nM | – |
| O=C1CSc2nc(SCc3c(Cl)cccc3Cl)ncc2N1 [Compound 4d, 2-(2,6-Dichlorobenzylthio)-5H-pyrimido[4,5-b][1,4]thiazin-6(7H)-one] | 242 to 244 °C | 25000 to 50000 nM | 25000 to 50000 nM | – |

Further lines, with some results ahead:

| melting point | SMILES | IC50 (DU145 (prostate cancer)) | IC50 [1] | also measured |
| --- | --- | --- | --- | --- |
| 274 to 276 °C | CN1CCN(c2ccc(Nc3ncc4c(n3)S/C(=C/c3ccc(C#N)cc3)C(=O)N4)cc2)CC1 [Compound 1n, (E)-4-((2-((4-(4-Methylpiperazin-1-yl)phenyl)amino)-6-oxo-5H-pyrimido[4,5-b][1,4]thiazin-7(6H)-ylidene)methyl)benzonitrile] | < 1000 nM | < 1000 nM | – |
| 294 to 298 °C | CN1CCN(c2ccc(Nc3ncc4c(n3)S/C(=C/c3ccc(C(N)=O)cc3)C(=O)N4)cc2)CC1 [Compound 1p, (E)-4-((2-((4-(4-Methylpiperazin-1-yl)phenyl)amino)-6-oxo-5H-pyrimido[4,5-b][1,4]thiazin-7(6H)-ylidene)methyl)benzamide] | 1000 to 10000 nM | 1000 to 10000 nM | – |
| 312 to 314 °C | CN1CCN(c2ccc(Nc3ncc4c(n3)S/C(=C/c3ccc(O)cc3)C(=O)N4)cc2)CC1 [Compound 1q, (E)-7-(4-Hydroxybenzylidene)-2-((4-(4-methylpiperazin-1-yl)phenyl)amino)-5H-pyrimido[4,5-b][1,4]thiazin-6(7H)-one] | < 1000 nM | < 1000 nM | – |
